Laboratory results reported in paper PMC11266321 (EJNMMI Radiopharmacy and Chemistry, 2024).

Assays:
GABA A (BZ central) = test: Radioligand binding inhibition, GABA A BZ central; settings: 10 µM; radioligand [^3H]Flunitrazepam; mean of duplicate
Procedure: (§1) Interaction of MMP with 28 binding sites was examined, including major classes of neurotransmitter receptor, uptake system, and ion channels (Sekisui Medical, Naka, Japan). MMP was tested in all assays at 10 µM. […] 10.2.3 (GraphPad Software, San Diego, CA). Each determination was made in duplicate.
(§2) Test substance concentration : 10 µM, positive substance concentration : 10 µM
(§3) Data are expressed as the mean values of duplicate samples.
(§4) The % inhibition was calculated from “100 – binding ratio”.
(§5) Binding ratio: [(B - N) / (B0 - N)] × 100 (%)
(§6) B: Bound radioactivity in the presence of test substance and positive substance (individual value)
(§7) B0: Total bound radioactivity in the absence of test substance and positive substance (mean value)
(§8) N: Non-specific bound radioactivity (mean value)

Nicotinic (neuronal) = type: binding; settings: 10 µM; radioligand [^3H]Cytisine; mean of duplicate
Serotonin 5HT3 (human) = biological target: T1, Serotonin 5HT3 (human) (Homo sapiens, UniProt P46098); test: Radioligand binding inhibition, Serotonin 5HT3; settings: 10 µM; radioligand [^3H]GR65630; mean of duplicate
T1 construct: Sekisui Medical (contract laboratory that ran the panel)
Procedure: as §1, §2, §3, §4, §5, §6, §7, §8

Glutamate (AMPA) = test: Radioligand binding inhibition, Glutamate AMPA; settings: 10 µM; radioligand [^3H]AMPA; mean of duplicate
Procedure: as §1, §2, §3, §4, §5, §6, §7, §8

[1] = system: α2-Adrenergic (non-selective); test: Radioligand binding inhibition, α2-Adrenergic; settings: 10 µM; radioligand [^3H]Rauwolscine; mean of duplicate
Procedure: as §1, §2, §3, §4, §5, §6, §7, §8

[2] = system: Glycine (strychnine site); type: binding; settings: 10 µM; radioligand [^3H]Strychine; mean of duplicate
Dopamine D2 = biological target: T2, Dopamine D2 (Homo sapiens, UniProt P14416); test: Radioligand binding inhibition, Dopamine D2; settings: 10 µM; radioligand [^3H]Spiperone; mean of duplicate
T2 construct: Sekisui Medical (contract laboratory)
Procedure: as §1, §2, §3, §4, §5, §6, §7, §8

[3] = system: β-Adrenergic (non-selective); test: Radioligand binding inhibition, β-Adrenergic; settings: 10 µM; radioligand [^3H]DHA; mean of duplicate
Procedure: as §1, §2, §3, §4, §5, §6, §7, §8

Serotonin 5HT2A = biological target: T3, Serotonin 5HT2A (Homo sapiens, UniProt P28223); test: Radioligand binding inhibition, Serotonin 5HT2A; settings: 10 µM; radioligand [^3H]Ketanserin; mean of duplicate
T3 construct: Sekisui Medical (contract laboratory that ran the panel)
Procedure: as §1, §2, §3, §4, §5, §6, §7, §8

Serotonin 5HT1A = biological target: T4, Serotonin 5HT1A (Homo sapiens, UniProt P08908); test: Radioligand binding inhibition, Serotonin 5HT1A; settings: 10 µM; radioligand [^3H]8-OH DPAT; mean of duplicate
T4 construct: Sekisui Medical (contract laboratory)
Procedure: as §1, §2, §3, §4, §5, §6, §7, §8

[4] = system: Glutamate (NMDA agonist site); test: Radioligand binding inhibition, Glutamate NMDA agonist site; settings: 10 µM; radioligand [^3H]CGP-39653; mean of duplicate
Procedure: as §1, §2, §3, §4, §5, §6, §7, §8

[5] = system: Glutamate (non-selective); test: Radioligand binding inhibition, Glutamate non-selective; settings: 10 µM; radioligand [^3H]Glutamic acid; mean of duplicate
Procedure: as §1, §2, §3, §4, §5, §6, §7, §8

Histamine H2 = biological target: T5, Histamine H2 (Homo sapiens, UniProt P25021); test: Radioligand binding inhibition, Histamine H2; settings: 10 µM; radioligand [^125I]Iodoaminopotentidine; mean of duplicate
T5 construct: Sekisui Medical (contract laboratory)
Procedure: as §1, §2, §3, §4, §5, §6, §7, §8

[6] = biological target: T6, Glutamate (NMDA glycine site) (Homo sapiens, UniProt Q05586); test: Radioligand binding inhibition, Glutamate NMDA glycine site; settings: 10 µM; radioligand [^3H]MDL105,519; mean of duplicate
T6 construct: Sekisui Medical (contract laboratory)
Procedure: as §1, §2, §3, §4, §5, §6, §7, §8

Opiate (non-selective) = test: Radioligand binding inhibition, Opiate; settings: 10 µM; radioligand [^3H]Naloxone; mean of duplicate
Procedure: as §1, §2, §3, §4, §5, §6, §7, §8

GABA A (agonist site) = test: Radioligand binding inhibition, GABA A agonist site; settings: 10 µM; radioligand [^3H]Muscimol; mean of duplicate
Procedure: as §1, §2, §3, §4, §5, §6, §7, §8

[7] = system: Glutamate (NMDA phencyclidine site); test: Radioligand binding inhibition, Glutamate NMDA phencyclidine site; settings: 10 µM; radioligand [^3H]MK-801; mean of duplicate
Procedure: as §1, §2, §3, §4, §5, §6, §7, §8

Glutamate (Ketamine) = test: Radioligand binding inhibition, Glutamate (Ketamine); settings: 10 µM; radioligand [^3H]Kainic acid; mean of duplicate

T2 sequence (P14416 whole entry): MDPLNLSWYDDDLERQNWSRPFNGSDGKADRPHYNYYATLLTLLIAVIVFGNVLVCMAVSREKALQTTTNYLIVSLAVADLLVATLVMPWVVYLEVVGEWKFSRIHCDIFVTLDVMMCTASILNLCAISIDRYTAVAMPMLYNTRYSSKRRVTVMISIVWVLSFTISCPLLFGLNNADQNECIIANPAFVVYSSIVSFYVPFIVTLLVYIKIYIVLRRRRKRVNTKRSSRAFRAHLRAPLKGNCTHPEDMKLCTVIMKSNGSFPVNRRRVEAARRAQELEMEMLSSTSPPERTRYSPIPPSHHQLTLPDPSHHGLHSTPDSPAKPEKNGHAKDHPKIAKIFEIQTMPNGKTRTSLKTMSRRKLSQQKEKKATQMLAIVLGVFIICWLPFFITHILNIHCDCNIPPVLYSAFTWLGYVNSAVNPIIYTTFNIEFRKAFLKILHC
T1 sequence (P46098 24-478): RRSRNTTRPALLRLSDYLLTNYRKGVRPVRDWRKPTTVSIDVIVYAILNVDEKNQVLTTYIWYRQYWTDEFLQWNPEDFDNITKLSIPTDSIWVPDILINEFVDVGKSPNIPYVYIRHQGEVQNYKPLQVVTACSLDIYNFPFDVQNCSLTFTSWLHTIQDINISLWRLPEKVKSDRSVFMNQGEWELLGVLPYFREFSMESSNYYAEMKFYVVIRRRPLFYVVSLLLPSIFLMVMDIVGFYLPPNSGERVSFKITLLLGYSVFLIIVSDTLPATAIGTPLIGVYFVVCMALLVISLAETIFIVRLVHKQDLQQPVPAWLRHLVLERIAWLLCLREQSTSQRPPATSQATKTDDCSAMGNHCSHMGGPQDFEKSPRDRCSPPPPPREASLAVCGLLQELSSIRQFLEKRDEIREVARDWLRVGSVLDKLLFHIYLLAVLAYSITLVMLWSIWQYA
T4 sequence (P08908 whole entry): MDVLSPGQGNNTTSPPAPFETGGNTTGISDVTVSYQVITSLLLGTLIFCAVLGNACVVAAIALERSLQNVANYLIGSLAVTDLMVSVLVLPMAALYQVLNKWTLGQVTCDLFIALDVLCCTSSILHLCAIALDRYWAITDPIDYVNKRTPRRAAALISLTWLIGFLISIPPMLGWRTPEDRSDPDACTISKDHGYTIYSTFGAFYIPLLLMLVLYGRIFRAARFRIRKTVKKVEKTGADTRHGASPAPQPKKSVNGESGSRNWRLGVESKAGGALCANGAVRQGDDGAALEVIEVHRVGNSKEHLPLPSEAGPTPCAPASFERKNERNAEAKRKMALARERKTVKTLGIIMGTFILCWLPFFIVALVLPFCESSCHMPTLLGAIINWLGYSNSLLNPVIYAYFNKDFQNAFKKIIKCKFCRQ
T3 sequence (P28223 whole entry): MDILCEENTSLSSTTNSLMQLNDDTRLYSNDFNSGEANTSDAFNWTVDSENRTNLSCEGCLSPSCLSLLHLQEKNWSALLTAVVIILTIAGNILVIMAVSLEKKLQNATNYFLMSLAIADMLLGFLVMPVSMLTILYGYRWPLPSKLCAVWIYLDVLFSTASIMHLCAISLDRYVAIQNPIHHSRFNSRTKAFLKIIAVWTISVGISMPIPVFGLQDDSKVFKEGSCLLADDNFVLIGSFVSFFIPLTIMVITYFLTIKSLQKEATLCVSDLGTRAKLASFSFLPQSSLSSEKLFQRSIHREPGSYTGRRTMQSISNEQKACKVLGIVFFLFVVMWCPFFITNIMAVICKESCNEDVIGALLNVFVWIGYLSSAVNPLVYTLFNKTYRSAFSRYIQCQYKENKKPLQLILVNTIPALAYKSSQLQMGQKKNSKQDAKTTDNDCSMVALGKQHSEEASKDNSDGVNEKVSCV
T5 sequence (P25021 whole entry): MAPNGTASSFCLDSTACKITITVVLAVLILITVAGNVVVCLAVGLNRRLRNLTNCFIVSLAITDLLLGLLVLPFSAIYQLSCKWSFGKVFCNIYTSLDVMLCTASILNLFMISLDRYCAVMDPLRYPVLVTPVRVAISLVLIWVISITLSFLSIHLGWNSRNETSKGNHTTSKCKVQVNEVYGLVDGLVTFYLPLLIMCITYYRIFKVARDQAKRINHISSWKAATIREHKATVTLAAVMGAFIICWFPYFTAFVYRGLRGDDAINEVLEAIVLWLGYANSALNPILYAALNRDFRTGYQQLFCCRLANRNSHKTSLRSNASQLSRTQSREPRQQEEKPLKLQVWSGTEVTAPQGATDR

`CN1C(=O)CN=C(c2ccccc2)c2cc(Cl)ccc21` [Diazepam, reference compound] was tested, and the “Inhibition ratio (%)” value (GABA A (BZ central)) was 100.00%.
For (±)-Nicotine [reference compound], the “Inhibition ratio (%)” value (Nicotinic (neuronal)) was 95.62%.
With `CN1[C@@H]2CC[C@H]1C[C@@H](OC(=O)c1c[nH]c3ccccc13)C2` [Tropisetron, reference compound] the “Inhibition ratio (%)” value (Serotonin 5HT3 (human)) was 99.78%.
With `Cc1o[nH]c(=O)c1C[C@H](N)C(=O)O` [(S)-AMPA, reference compound] the “Inhibition ratio (%)” value (Glutamate (AMPA)) was 98.65%.
With `COC(=O)[C@@H]1[C@H]2C[C@H]3c4[nH]c5ccccc5c4CCN3C[C@@H]2CC[C@@H]1O` [Yohimbine, reference compound] the “Inhibition ratio (%)” value [1] was 89.82%.
In the case of `O=C1C[C@@H]2OCC=C3CN4CC[C@]56c7ccccc7N1[C@H]5[C@H]2[C@H]3C[C@H]46` [Strychnine, reference compound], the “Inhibition ratio (%)” value [2] is reported as 100.00%.
(+)-Butaclamol [reference compound] was tested, and the “Inhibition ratio (%)” value (Dopamine D2) was 95.06%.
With `CC(C)NCC(O)COc1cccc2ccccc12` (racemic) [(±)-Propranolol, reference compound] the “Inhibition ratio (%)” value [3] was 97.25%.
In the case of `O=C(c1ccc(F)cc1)C1CCN(CCn2c(=O)[nH]c3ccccc3c2=O)CC1` [Ketanserin, reference compound], the “Inhibition ratio (%)” value (Serotonin 5HT2A) is reported as 98.94%.
`NCCc1c[nH]c2ccc(O)cc12` [Serotonin, reference compound] was tested, and the “Inhibition ratio (%)” value (Serotonin 5HT1A) was 95.99%.
In the case of `N[C@@H](CCC(=O)O)C(=O)O` [L-Glutamic acid, reference compound], the “Inhibition ratio (%)” value [4] is reported as 100.00% and the “Inhibition ratio (%)” value [5] is reported as 93.56%.
With `CN/C(=N/CCSCc1nc[nH]c1C)NC#N` [Cimetidine, reference compound] the “Inhibition ratio (%)” value (Histamine H2) was 97.63%.
With `O=C(O)/C(=C/c1c(C(=O)O)[nH]c2cc(Cl)cc(Cl)c12)c1ccccc1` [MDL105,519, reference compound] the “Inhibition ratio (%)” value [6] was 97.35%.
`C=CCN1CC[C@]23c4c5ccc(O)c4O[C@H]2C(=O)CC[C@@]3(O)[C@H]1C5` [Naloxone, reference compound] was tested, and the “Inhibition ratio (%)” value (Opiate (non-selective)) was 96.53%.
With `NCc1cc(=O)[nH]o1` [Muscimol, reference compound] the “Inhibition ratio (%)” value (GABA A (agonist site)) was 96.50%.
(+)-MK-801 [reference compound] was tested, and the “Inhibition ratio (%)” value [7] was 100.00%.
With `C=C(C)[C@H]1CN[C@H](C(=O)O)[C@H]1CC(=O)O` [Kainic acid, reference compound] the “Inhibition ratio (%)” value (Glutamate (Ketamine)) was 97.79%.
